Data: patent US10143718B2, “Covalent inhibitors of dual oxidase 1 (DUOX 1)” (The University of Vermont and State Agricultural College, priority 2015, dated 2018)
Entries after “also recorded” stand apart in the source; their conditions may differ.

What was measured:
[1] = tested on: mouse tracheal epithelial cells; assay: Allergen-induced cytokine secretion from cultured mouse tracheal epithelial cells; assay type: cell-based; conditions: for HDM-induced IL-33 secretion (culture media): mouse tracheal epithelial cells, pretreated 30 minutes, then HDM for 2 hrs
Method: (§1) Cells were pretreated with acrolein (ACR), cinnamaldehyde (CIN), curcumin (Curc) or sulforaphane (SFN) for 30 minutes and then stimulated with HDM for 2 hrs. IL-33 was measured in culture media.

[2] = tested on: allergic inflammation and mucus metaplasia; assay: Acrolein exposure in a mouse model of allergic asthma; assay type: in vivo; conditions: non-toxic doses of acrolein
[3] = tested on: allergen-mediated Ca^2+ increases; assay: Allergen-induced Ca2+ increases in epithelial cells; assay type: cell-based; conditions: non-toxic concentrations (3-30 micromolar)
Description: (§2) Based on identifying the involvement of Ca^2+-dependent DUOX1 activation and subsequent EGFR activation in allergen-induced IL-33 secretion from epithelial cells), the impact of acrolein exposure on allergen-induced Ca^2+ increases, extracellular H2O2 production (as a measure of DUOX1 activation) and EGFR tyrosine phosphorylation (as an indicator of EGFR activation) were studied.

[4] = tested on: innate airway responses to HDM; assay: Acrolein inhalation, then allergen challenge; BAL cytokines analyzed; assay type: in vivo; conditions: mice; acrolein 5 ppm, 4 hrs; then HDM (50 micrograms) or Alternaria alternata challenge; BAL 1 hour later
Method: Electrophilic compounds can suppress allergic inflammation and innate allergen responses. […] Mice were exposed to acrolein (5 ppm; 4 hrs, and subsequently challenged with HDM (50 micrograms), and BAL cytokines were analyzed 1 hour later.

DUOX1 [5] = biological target: T1, DUOX1 (Homo sapiens, UniProt Q9NRD9); assay: Extracellular H2O2 production by HBE1 cells as a measure of DUOX1 activation (lactoperoxidase/tyrosine, HPLC); assay type: cell-based; conditions: for ATP-induced H2O2 production: electrophile 30 min prior to ATP stimulation, media collected after 10 min, 1-30 micromolar for food-derived electrophiles
T1 construct: endogenous in cells; host or cells: HBE1 (immortalized human bronchial epithelial cells)
Description: as §2
Preliminary studies of DUOX1 targeting by electrophiles. Acrolein (2,3-propenal) is a highly reactive electrophile and a well-recognized environmental pollutant. In this example, other electrophilic compounds with similar chemical reactivity were determined to be capable of inhibiting allergen-induced DUOX1 activation. These studies were performed using immortalized human bronchoepithelial cells (HBE1) which were cultured and exposed to different electrophiles at various doses for 30 min prior to cell stimulation with HDM or with ATP (a known activator of DUOX1). Conditioned culture media was collected 10 min after cell stimulation and mixed for 15 min with 10 micrograms/mL lactoperoxidase (Sigma) and 1 mM tyrosine (Gibco), which results in formation of fluorescent dityrosine product as a function of H2O2 concentration, and was analyzed by HPLC with fluorescence detection and compared with exogenous standards based on similarly treated stock solutions of H2O2. The resulting data were corrected for basal H2O2 production by unstimulated cells and ATP-dependent H2O2 production in the presence of electrophiles were expressed relative to that by ATP alone (which was set at 100%).

cellular GSH = assay: Cellular GSH depletion; assay type: cell-based; conditions: at concentrations inhibiting allergen-induced IL-33 secretion and H2O2 production
DUOX1 [6] = biological target: T1, DUOX1; assay: ARP labeling of DUOX1 in HBE1 cells (biotin tag, avidin purification, western blot); assay type: binding; conditions: 0, 10, or 30 micromolar for 30 minutes
Description: Since these various electrophiles act primarily by targeting susceptible cysteine residues by Michael addition, it was believed that they may directly target DUOX1 protein on one of its accessible cysteine residues within its extracellular peroxidase homology (PHD) domain. […] Moreover, since the PHD domain is unique to DUOX and not present in other NADPH oxidase isoforms, this targeting approach would avoid non-selective actions on these other isoforms, a common problem with most NADPH oxidase inhibitors currently in development. To determine whether acrolein-mediated inhibition of DUOX1 activity (FIG. 4) was associated with direct targeting of DUOX1 protein, HBE1 cells were treated with 0, 10, or 30 micromolar acrolein for 30 minutes and derivatized cell lysates with aldehyde reactive probe (ARP; Pierce), which converts acrolein-induced Michael adducts to induce a biotin tag. Biotin-tagged proteins were subsequently purified by avidin chromatography and collected biotin-tagged proteins (eluates) were then analyzed by 10% SDS-PAGE and western blotting with an alpha-DUOX1 antibody. Whole cell lysate were analyzed accordingly as loading controls.

EGFR = assay: Allergen-induced EGFR tyrosine phosphorylation (EGFR activation); assay type: cell-based; conditions: non-toxic concentrations (3-30 micromolar)
Description: as §2

[7] = tested on: human bronchial epithelial cell line HBE1; assay: Allergen-induced cytokine secretion from HBE1 cells; assay type: cell-based; conditions: acrolein pretreatment
Method: as §1

T1 sequence (Q9NRD9 22-1551): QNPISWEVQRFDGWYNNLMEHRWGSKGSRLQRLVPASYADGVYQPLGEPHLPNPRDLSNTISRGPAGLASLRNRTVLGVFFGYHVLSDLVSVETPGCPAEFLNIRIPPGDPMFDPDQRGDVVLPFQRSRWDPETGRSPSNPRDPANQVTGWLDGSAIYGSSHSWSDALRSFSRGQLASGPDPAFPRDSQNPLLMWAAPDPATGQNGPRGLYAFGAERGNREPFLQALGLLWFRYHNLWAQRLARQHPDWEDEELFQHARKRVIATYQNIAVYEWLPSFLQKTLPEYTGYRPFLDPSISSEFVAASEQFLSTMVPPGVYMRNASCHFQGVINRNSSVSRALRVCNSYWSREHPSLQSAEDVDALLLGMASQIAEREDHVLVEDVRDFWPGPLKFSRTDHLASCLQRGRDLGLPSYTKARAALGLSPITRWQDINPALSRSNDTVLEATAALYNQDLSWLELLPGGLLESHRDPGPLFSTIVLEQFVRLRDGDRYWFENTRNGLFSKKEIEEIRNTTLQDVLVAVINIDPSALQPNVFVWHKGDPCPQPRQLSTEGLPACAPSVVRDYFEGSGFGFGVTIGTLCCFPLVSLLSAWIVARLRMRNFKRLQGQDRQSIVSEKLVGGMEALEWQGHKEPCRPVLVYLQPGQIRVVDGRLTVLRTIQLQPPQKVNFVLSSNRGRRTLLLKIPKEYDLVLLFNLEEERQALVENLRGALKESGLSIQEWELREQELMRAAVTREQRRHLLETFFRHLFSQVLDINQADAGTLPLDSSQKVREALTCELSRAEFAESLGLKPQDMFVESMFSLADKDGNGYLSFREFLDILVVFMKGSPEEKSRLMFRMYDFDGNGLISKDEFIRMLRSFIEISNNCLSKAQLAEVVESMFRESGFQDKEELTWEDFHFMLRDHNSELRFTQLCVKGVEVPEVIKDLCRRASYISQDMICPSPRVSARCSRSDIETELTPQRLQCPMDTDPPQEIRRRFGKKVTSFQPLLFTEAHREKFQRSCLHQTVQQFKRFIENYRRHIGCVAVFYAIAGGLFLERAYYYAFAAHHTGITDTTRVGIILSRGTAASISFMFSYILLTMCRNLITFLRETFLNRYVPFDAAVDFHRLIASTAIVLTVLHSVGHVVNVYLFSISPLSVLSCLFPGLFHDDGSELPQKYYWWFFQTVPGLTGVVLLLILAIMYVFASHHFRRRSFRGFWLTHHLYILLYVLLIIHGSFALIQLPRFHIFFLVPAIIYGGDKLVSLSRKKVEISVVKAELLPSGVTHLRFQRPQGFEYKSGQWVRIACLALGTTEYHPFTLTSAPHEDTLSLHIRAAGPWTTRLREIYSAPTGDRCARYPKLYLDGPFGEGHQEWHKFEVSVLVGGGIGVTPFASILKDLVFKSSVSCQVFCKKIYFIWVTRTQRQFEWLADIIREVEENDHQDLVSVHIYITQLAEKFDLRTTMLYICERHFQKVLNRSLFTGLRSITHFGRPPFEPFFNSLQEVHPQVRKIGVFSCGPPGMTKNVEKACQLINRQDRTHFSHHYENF

Row | SMILES | HDM-induced IL-33 secretion (culture media) [1] | ATP-induced H2O2 production (DUOX1 [5]) | further results
1 | C=CC=O [acrolein, 2,3-propenal] | inhibited HDM-induced IL-33 secretion | dose-dependent inhibition | allergen-induced secretion of IL-33, IL-1α or IL-17E ([1]; cultured tracheal epithelial cells from mice, acrolein pretreatment): inhibits allergen-induced secretion of IL-33, IL-1α or IL-17E in a dose-dependent manner; allergic inflammation and mucus metaplasia [2]: dramatically suppress allergic inflammation and mucus metaplasia; allergen-mediated Ca^2+ increases [3]: did not affect allergen-mediated Ca^2+ increases; production of IL-33, IL-1α or IL-17E (BAL cytokines) [4]: dramatically minimized production of IL-33, IL-1α or IL-17E; allergen-induced extracellular H2O2 production (DUOX1 [5]; non-toxic concentrations (3-30 micromolar)): markedly suppressed; also recorded: inhibits allergen-induced H2O2 production; cellular GSH depletion (cellular GSH): occurred in the absence of cellular GSH depletion; ARP labeling of DUOX1 (direct adduct with DUOX1) (DUOX1 [6]): induced dose-dependent ARP labeling of DUOX1; allergen-induced EGFR autophosphorylation (EGFR): markedly suppressed allergen-induced EGFR autophosphorylation; allergen-induced secretion of IL-33, IL-1α or IL-17E [7]: inhibits allergen-induced secretion of IL-33, IL-1α or IL-17E in a dose-dependent manner
2 | O=C/C=C/c1ccccc1 [cinnamaldehyde, (2E)-3-phenylprop-2-enal] | inhibited HDM-induced IL-33 secretion | capable of inhibiting ATP-mediated H2O2 production; also recorded: dose-dependent inhibition | –
3 | COc1cc(/C=C/C(=O)CC(=O)/C=C/c2ccc(O)c(OC)c2)ccc1O [curcumin, (1E,6E)-1,7-Bis(4-hydroxy-3-methoxyphenyl)-1,6-heptadiene-3,5-dione] | inhibited HDM-induced IL-33 secretion | capable of inhibiting ATP-mediated H2O2 production | –
4 | C=CS(=O)(=O)Oc1ccccc1 [phenyl vinyl sulfonate] | – | dose-dependent inhibition | –
5 | C=CS(=O)(=O)c1ccccc1 [phenyl vinyl sulfone] | – | Inhibitory effects | –
6 | C[S+]([O-])CCCCN=C=S (stereo not shown) [sulforaphane, 1-Isothiocyanato-4-methylsulfinylbutane] | inhibited HDM-induced IL-33 secretion | capable of inhibiting ATP-mediated H2O2 production; also recorded: dose-dependent inhibition | –
